Test results taken from ChEMBL document CHEMBL1201862, “PubChem BioAssay data set” (2004).
The source made the active and inactive calls.

Experiments:
[1] = target: T1, Rac GTPase-activating protein 1 (Homo sapiens, UniProt Q9H0H5); assay: blockers of MgcRacGAP-driven Rac1 GTP hydrolysis – biochemical, ADP Hunter fluorescence, primary and confirmatory, confirmation (AID 624330); format: functional
T1 sequence (Q9H0H5 whole entry): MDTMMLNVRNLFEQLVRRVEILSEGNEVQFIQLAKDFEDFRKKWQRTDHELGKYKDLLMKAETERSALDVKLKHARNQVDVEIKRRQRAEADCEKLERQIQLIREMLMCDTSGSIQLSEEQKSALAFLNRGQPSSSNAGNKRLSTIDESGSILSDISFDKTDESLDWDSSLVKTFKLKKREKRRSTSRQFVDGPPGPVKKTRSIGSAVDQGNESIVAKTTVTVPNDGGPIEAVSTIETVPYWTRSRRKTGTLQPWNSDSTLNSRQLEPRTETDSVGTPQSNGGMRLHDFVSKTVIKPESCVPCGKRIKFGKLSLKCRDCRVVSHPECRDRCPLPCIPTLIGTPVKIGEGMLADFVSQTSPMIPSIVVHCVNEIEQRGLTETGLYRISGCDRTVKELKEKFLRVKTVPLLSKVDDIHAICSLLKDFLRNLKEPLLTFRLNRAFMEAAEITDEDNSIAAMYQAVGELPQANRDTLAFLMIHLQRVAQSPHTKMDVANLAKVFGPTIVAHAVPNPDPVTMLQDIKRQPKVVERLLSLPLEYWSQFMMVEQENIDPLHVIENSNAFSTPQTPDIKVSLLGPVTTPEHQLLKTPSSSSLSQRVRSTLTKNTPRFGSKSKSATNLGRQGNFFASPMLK

[2] = viability of uninfected HEp-2 cells – cell-based, HTS, cytotoxicity control for RSV inhibitor project, dose response (AID 2410); format: functional; settings: human respiratory syncytial virus
Cytochrome P450 2D6 = Cytochrome P450 2D6 (Homo sapiens, UniProt P10635);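 further: CYP2D6 member of a cytochrome P450 panel assay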
Cytochrome P450 3A4 = Cytochrome P450 3A4 (Homo sapiens, UniProt P08684);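 further: CYP3A4 tested as one member of a cytochrome P450 panel screen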
Cytochrome P450 2C9 = Cytochrome P450 2C9 (Homo sapiens, UniProt P11712)
Cytochrome P450 1A2 = target: T2, Cytochrome P450 1A2 (Homo sapiens, UniProt P05177);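 further: PubChem cytochrome P450 panel assay, CYP1A2 panel member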
T2 sequence (P05177 whole entry): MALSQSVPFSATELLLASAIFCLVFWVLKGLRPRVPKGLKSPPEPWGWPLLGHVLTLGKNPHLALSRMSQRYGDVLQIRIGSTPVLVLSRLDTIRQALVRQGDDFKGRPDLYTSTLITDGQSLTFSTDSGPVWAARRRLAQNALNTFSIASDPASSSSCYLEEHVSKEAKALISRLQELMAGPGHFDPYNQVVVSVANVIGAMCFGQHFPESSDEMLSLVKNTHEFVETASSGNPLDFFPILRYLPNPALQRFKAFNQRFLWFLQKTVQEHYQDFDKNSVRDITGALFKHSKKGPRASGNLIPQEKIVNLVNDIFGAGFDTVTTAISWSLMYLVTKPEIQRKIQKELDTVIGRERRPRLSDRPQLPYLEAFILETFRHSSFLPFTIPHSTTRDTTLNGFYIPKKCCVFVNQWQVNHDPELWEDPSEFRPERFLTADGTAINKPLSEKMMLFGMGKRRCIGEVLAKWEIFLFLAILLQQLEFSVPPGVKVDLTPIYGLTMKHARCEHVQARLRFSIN

H4 = assay: Luminescence Cell-Based Dose Response HTS to Identify Activators of 5'UTR Stem-Loop Driven Prion Protein mRNA Translation in H4 Neuroglioblastoma Cells. [Related pubchem assays: 1829 (Project Summary), 1814 (Primary HTS)]; format: functional; settings: Homo sapiens
[3] = Luminescence Cell-Based Dose Response HTS to Identify Activators of Luciferase Translation or Activity in H4 […] Cells. [Related pubchem assays: 1829 (Project Summary), 1814 (Primary HTS)]; format: functional
[4] = NIH3T3 cell viability loss – ATP luminescence, mouse fibroblasts, counter-screen, dose response (AID 2010); format: functional, cell-based;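 further: cells exposed to compound for about 90 hours before reading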
[5] = Trypanosoma cruzi growth suppression in host cells – NIH3T3 host cells, beta-gal luminescence, confirmation (AID 2044); format: functional, cell-based;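 further: intracellular parasites grown in NIH/3T3 mouse fibroblasts as host cells; luminescent beta-galactosidase reporter signal from transgenic T. cruzi replicating inside host cells; inhibitors lower the luminescence signal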
[6] = target: T3, Corticotropin-releasing factor receptor 2/Corticotropin-releasing factor-binding protein (Homo sapiens, UniProt P24387+Q13324); assay: activators of CRF receptor 2 with binding protein – uHTS hits, confirmation (AID 602473); format: functional; settings: read-out: EC50_Mean
T3 sequence (Q13324 whole entry): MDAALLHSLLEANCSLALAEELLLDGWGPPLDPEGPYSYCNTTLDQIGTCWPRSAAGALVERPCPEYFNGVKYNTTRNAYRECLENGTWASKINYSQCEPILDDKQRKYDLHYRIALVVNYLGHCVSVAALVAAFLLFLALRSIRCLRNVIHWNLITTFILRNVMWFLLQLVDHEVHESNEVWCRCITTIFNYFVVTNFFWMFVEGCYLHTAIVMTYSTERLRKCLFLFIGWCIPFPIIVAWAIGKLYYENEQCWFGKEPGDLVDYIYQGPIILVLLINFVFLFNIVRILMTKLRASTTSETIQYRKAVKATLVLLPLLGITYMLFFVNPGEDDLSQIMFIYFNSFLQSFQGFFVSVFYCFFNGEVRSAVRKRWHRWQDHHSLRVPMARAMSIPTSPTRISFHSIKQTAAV
T3 sequence (P24387 whole entry): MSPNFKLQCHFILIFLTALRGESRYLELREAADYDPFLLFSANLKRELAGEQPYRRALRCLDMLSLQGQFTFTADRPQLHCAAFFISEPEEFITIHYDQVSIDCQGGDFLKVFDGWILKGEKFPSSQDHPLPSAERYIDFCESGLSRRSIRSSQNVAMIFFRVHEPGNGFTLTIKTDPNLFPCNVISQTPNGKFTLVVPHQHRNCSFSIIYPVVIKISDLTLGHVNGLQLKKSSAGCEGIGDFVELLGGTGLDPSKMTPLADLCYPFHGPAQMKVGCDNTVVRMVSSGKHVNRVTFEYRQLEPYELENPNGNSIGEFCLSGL

Cytochrome P450 2C19 = Cytochrome P450 2C19 (Homo sapiens, UniProt P33261); assay: Cytochrome panel assay with activity outcomes. Panel member name: p450-cyp2c19 Compounds with AC50 equal or less than 10 uM are considered active; format: functional; settings: read-out: AC50
Sequence of Cytochrome P450 2C19 (P33261 whole entry): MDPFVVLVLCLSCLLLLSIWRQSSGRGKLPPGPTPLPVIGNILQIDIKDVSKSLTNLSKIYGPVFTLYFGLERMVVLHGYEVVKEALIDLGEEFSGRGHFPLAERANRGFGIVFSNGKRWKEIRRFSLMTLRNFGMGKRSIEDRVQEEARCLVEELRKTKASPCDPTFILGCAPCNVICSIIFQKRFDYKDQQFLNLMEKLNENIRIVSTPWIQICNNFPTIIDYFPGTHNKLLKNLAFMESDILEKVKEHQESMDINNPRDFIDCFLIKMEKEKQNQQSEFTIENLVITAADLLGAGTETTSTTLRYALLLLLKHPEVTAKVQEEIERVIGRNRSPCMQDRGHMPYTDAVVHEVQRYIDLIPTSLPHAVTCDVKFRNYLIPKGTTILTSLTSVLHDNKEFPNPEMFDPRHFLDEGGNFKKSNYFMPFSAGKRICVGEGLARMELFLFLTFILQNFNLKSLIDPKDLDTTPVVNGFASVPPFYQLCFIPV

Sequence of Cytochrome P450 2C9 (P11712 whole entry): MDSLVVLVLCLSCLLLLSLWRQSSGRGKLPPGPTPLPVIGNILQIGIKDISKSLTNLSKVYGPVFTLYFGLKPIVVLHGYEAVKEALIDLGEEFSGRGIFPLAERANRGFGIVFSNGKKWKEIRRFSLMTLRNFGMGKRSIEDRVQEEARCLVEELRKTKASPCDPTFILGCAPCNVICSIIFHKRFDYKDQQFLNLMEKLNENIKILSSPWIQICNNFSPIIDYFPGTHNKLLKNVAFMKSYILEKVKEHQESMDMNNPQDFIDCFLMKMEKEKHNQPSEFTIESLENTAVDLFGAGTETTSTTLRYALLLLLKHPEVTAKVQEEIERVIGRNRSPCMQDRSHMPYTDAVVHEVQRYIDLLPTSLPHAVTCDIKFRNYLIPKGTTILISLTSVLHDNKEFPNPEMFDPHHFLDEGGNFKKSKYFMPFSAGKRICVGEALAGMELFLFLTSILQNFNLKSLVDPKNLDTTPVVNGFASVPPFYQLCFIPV
Sequence of Cytochrome P450 3A4 (P08684 whole entry): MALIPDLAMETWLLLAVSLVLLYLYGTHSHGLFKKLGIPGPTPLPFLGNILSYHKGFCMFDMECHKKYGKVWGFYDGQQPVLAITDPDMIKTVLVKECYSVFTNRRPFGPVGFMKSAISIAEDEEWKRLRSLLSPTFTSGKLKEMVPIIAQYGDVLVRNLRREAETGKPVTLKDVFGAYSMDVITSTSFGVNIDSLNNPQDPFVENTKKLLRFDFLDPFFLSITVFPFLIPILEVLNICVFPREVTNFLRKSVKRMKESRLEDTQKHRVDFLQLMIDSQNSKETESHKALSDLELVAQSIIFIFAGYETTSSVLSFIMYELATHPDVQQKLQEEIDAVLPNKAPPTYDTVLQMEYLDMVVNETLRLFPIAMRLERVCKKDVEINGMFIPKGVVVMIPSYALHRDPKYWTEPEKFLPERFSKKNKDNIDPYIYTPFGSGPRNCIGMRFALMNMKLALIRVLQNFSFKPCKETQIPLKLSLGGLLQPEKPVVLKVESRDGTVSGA
Sequence of Cytochrome P450 2D6 (P10635 whole entry): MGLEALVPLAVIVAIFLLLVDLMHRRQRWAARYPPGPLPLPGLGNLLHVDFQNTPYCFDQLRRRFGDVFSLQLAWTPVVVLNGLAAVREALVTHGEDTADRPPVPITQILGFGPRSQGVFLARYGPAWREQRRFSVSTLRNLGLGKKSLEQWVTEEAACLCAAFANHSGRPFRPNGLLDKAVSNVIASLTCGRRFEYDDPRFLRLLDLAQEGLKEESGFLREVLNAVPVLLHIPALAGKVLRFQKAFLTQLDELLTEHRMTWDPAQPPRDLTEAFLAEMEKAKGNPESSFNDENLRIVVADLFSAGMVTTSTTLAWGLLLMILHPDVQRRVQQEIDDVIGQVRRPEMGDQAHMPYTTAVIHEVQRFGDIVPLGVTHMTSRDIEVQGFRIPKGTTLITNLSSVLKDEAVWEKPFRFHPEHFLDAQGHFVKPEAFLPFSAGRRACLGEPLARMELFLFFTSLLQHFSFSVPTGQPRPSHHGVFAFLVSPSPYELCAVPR

COc1ccccc1OCCCCCCN1CCOCC1
IC50 [1]: 184 µM (active)

CCc1nnc(N/N=C/c2c(C)[nH]c3ccccc23)n1N
IC50 [1]: 51.7 µM (active)

O=C(COc1cccc2ccccc12)N/N=C/c1ccc(Sc2nc3ccccc3s2)o1
CC50 [2]: 10.8 µM (active)

COC(=O)c1nn(-c2ccccc2)c(Cl)c1/C=N/OCc1ccc(Cl)cc1Cl
CC50 [2]: 23.8 µM (active)

Cc1cccc(CNc2ccnc(-c3ccccc3C(F)(F)F)n2)c1
AC50 (Cytochrome P450 2D6): 25.1 µM (inconclusive) | AC50 (Cytochrome P450 3A4): 3.16 µM (inconclusive) | AC50 (Cytochrome P450 2C9): 1.26 µM (inconclusive)

O=S(=O)(c1ccccc1)N1CCC[C@@]2(CCN(Cc3ccccc3)C2)C1
AC50 (Cytochrome P450 1A2): 20 µM (inconclusive) | AC50 (Cytochrome P450 3A4): 1.26 µM (inconclusive)

NC[C@@H]1O[C@H](c2ccccc2)Cc2c1ccc(O)c2O
AC50 (Cytochrome P450 2D6): 31.6 µM (inconclusive) | AC50 (Cytochrome P450 1A2): 15.8 µM (inconclusive) | AC50 (Cytochrome P450 3A4): 31.6 µM (inconclusive)

Cc1c(N(C)C)c(=O)n(-c2ccccc2)n1C [AMINOPYRINE]
AC50 (Cytochrome P450 1A2): 10 µM (inconclusive)

O=C1C(/C=N/c2ccc(F)cc2)=C(O)c2ccccc21
EC50 (H4): 0.38 µM (active) | EC50 [3]: 0.173 µM (active)

COc1ccccc1NC(=O)C1CCN(S(=O)(=O)c2ccc3c(c2)NC(=O)C(C)S3)CC1 (centres undefined)
CC50 [2]: 20.2 µM (active)

CSc1ccc(CNC(=O)Cc2ccc(NC(=O)C3=C(C)OCCS3)cc2)cc1
EC50 [3]: 1.92 µM (active)

COc1ccc(CN2CCN(Cc3cccc(F)c3)CC2)cc1OC
IC50 [1]: 83 µM (active)

COc1ccc(C(=O)Nc2ccccc2)cc1NC(=O)c1ccc([N+](=O)[O-])cc1
CC50 [2]: > 50 µM (active) | EC50 [4]: > 60 µM (not active) | EC50 [5]: 1.33 µM (active)

CNC(=O)C1CCN(S(=O)(=O)c2c(C)noc2/C=C/c2ccc(OC)cc2)CC1
EC50 [6]: > 53 µM (inactive)

CN1CCN(c2ncc3nc(-c4ccccc4)c(=O)n(Cc4cccs4)c3n2)CC1
AC50 (Cytochrome P450 1A2): 15.8 µM (inconclusive)

CCOc1c2ccc(C(=O)NCc3ccc(OC(F)(F)F)cc3)cc2nn1C
AC50 (Cytochrome P450 2D6): 3.16 µM (inconclusive) | AC50 (Cytochrome P450 2C19): 20 µM (inconclusive)

COc1ccc(NCCC#N)cc1
IC50 [1]: 79.1 µM (active)

Nc1nc(CSc2nnnn2-c2ccc(Cl)cc2)nc(N2CCOCC2)n1
AC50 (Cytochrome P450 2D6): 2.51 µM (inconclusive) | AC50 (Cytochrome P450 1A2): 2.51 µM (inconclusive) | AC50 (Cytochrome P450 2C9): 5.62 µM (inconclusive) | AC50 (Cytochrome P450 2C19): 1 µM (inconclusive)

O=C(CN1CCN(S(=O)(=O)c2ccc(Br)cc2)CC1)N/N=C/c1ccc(Br)s1
CC50 [2]: 22.2 µM (active) | EC50 [4]: > 60 µM (not active) | EC50 [5]: 2.55 µM (active)

COc1cc(/C=N/NC(=O)c2ccc(-n3cccc3)cc2)ccc1O
IC50 [1]: 23.9 µM (active)

CCc1ccc(OCCOCCN2CCN(C)CC2)cc1
IC50 [1]: 89.4 µM (active)

CC(=O)O[C@H]1CC[C@@]2(C)C(=CC[C@@H]3[C@H]4CC[C@@H]([C@H](C)C(=O)O)[C@]4(C)CC[C@H]32)C1
AC50 (Cytochrome P450 1A2): 3.16 µM (inconclusive)

NC(=O)OC[C@H](O)COc1ccc(Cl)cc1
AC50 (Cytochrome P450 1A2): 10 µM (inconclusive)

COc1cc(/C=N/NC(=O)CCc2nnc(O)nc2O)ccc1O
IC50 [1]: 32.5 µM (active)

O=C(c1cnccn1)N1CCC2(CCCN(c3ccc(-c4ccccc4)cc3)C2)CC1
AC50 (Cytochrome P450 1A2): 25.1 µM (inconclusive) | AC50 (Cytochrome P450 2C9): 12.6 µM (inconclusive)

O=C(Cn1c(C(=O)NCC2CCCO2)cc2sccc21)c1ccccc1 (centres undefined)
IC50 [1]: 102 µM (active)

Cc1nc(N)sc1CCN [AMTHAMINE]
AC50 (Cytochrome P450 1A2): 31.6 µM (inconclusive)

Cc1ccccc1[C@]1(C)ON(c2ccccc2C(F)(F)F)C1=O
CC50 [2]: 21.8 µM (active)

CC(C)C(=O)/N=c1\sc2cccc(F)c2n1C
CC50 [2]: > 50 µM (active)

CC(=C/c1ccccc1)/C=N/n1c(S)nnc1-c1ccco1
IC50 [1]: 86.4 µM (active)

CCC(C)OC(=O)C1=C(C)NC(=O)CC1c1ccccc1OC (centres undefined)
AC50 (Cytochrome P450 1A2): 15.8 µM (inconclusive) | AC50 (Cytochrome P450 3A4): 39.8 µM (inconclusive)

COc1ccc(C(=O)N2CCC3(CCCN(C(=O)Nc4cccc(C#N)c4)C3)CC2)cc1
AC50 (Cytochrome P450 1A2): 15.8 µM (inconclusive) | AC50 (Cytochrome P450 2C9): 39.8 µM (inconclusive) | AC50 (Cytochrome P450 2C19): 39.8 µM (inconclusive)

COc1ccc(/C=N/c2ccc3[nH]ncc3c2)c(O)c1
IC50 [1]: 35.3 µM (active)

COc1cc(/C=C/C(=O)OCC(=O)Nc2ccc(S(=O)(=O)N3CCCC3)cc2)ccc1O
IC50 [1]: 60 µM (active)

CCOc1ccc(-c2cc(C(=O)N/N=C(\C)c3cccnc3)c3ccccc3n2)cc1
EC50 (H4): 84.3 µM (inconclusive)

CCCCN(CCCC)CCCOC(=O)c1ccc(N)cc1 [BUTACAINE]
AC50 (Cytochrome P450 1A2): 10 µM (inconclusive)

COc1cccc(C(=O)N2CCN(C3CCN(Cc4ccccc4)CC3)CC2)c1OC
IC50 [1]: 120 µM (active)

CC(C)CN1CCCC2(CCN(C(=O)c3cc(C(F)(F)F)cc(C(F)(F)F)c3)CC2)C1
AC50 (Cytochrome P450 1A2): 12.6 µM (inconclusive) | AC50 (Cytochrome P450 3A4): 15.8 µM (inconclusive) | AC50 (Cytochrome P450 2C9): 39.8 µM (inconclusive)

O=c1c(-c2cccc(Cl)c2)nc2cncnc2n1Cc1ccccc1
AC50 (Cytochrome P450 2D6): 39.8 µM (inconclusive) | AC50 (Cytochrome P450 2C19): 0.0398 µM (inconclusive)

O=C(NCCc1c[nH]c2ccccc12)c1cnc2sccn2c1=O
EC50 (H4): 54.8 µM (inconclusive) | EC50 [3]: 53 µM (active)

Cc1nc2cnc(N3CCN(C)CC3)nc2n(Cc2cccs2)c1=O
AC50 (Cytochrome P450 2D6): 15.8 µM (inconclusive) | AC50 (Cytochrome P450 3A4): 25.1 µM (inconclusive)

COc1ccccc1CN1CC[C@@]2(CCCN(C(=O)Oc3ccccc3)C2)C1
AC50 (Cytochrome P450 1A2): 10 µM (inconclusive) | AC50 (Cytochrome P450 3A4): 31.6 µM (inconclusive)

CCOC(=O)c1c(C)[nH]c(N=Nc2ccccc2)c1C
CC50 [2]: 34.9 µM (active)

O=C(N/N=C/c1ccc(Br)s1)c1c[nH]c2ccccc12
CC50 [2]: 37.3 µM (active)

CN1CCc2nc3ccc(F)cc3c(C(N)=O)c2C1
AC50 (Cytochrome P450 1A2): 25.1 µM (inconclusive) | AC50 (Cytochrome P450 2C9): 17.8 µM (inconclusive) | AC50 (Cytochrome P450 2C19): 39.8 µM (inconclusive)

CC(=O)[C@@H]1CC[C@H]2[C@H]3CC[C@H]4C[C@@H](O)CC[C@]4(C)[C@@H]3CC[C@]12C
AC50 (Cytochrome P450 1A2): 10 µM (inconclusive) | AC50 (Cytochrome P450 3A4): 15.8 µM (inconclusive) | AC50 (Cytochrome P450 2C19): 20 µM (inconclusive)
